No end group written: not given here.

One assay concerns wound healing. The following applies: cited from earlier work; for restoring connective tissue deposition / restoring wound contraction: antagonism of cortisone inhibition of wound healing.
Assay [1] has as its system wound healing in rats (sponge disc implants). The experiment in a line: Subcutaneous polyvinylchloride sponge disc implants in rats: collagen content and breaking strength. In kind it is in vivo, rat. The source says: (§1) Twenty-two male rats weighing between 300 g and 325 g were anesthetized, after which their backs and abdomens were shaved and washed with 70% ethanol. Three modified polyvinylchloride sponge discs 2 mm thick and 15 mm in diameter were implanted in each rat abdominally in subcutaneous pockets made under the skin. Two of the implants were cut in half and rejoined before the implantation, and the remaining disc was sandwiched between two silicone discs which forced granulation tissue infiltration to occur from the periphery of the disc. A single 15 mm×15 mm square full excision wound was made on the back and the wound edges tattooed.
(§2) The rats were then divided into four groups. A first, or control, group of four rats received sham injections daily. A second group of four rats received daily intramuscular injections of 10 mg of cortisone acetate. Cortisone is known to be an inhibitor of wound healing. A third group of seven rats received daily intramuscular injections of 0.3 mg of amide-terminated Magainin II. A fourth group of seven rats received daily intramuscular injections of 10 mg of cortisone acetate and 0.3 mg of Magainin II at separate sites. At seven days, rat weights were recorded, wound sizes measured, and the implants harvested. The staple which joined the two disc halves together was carefully removed and the breaking strength measured. Collagen content from the implant halves from each treatment group was measured by weighing the pepsin extracted native collagen. The sponge halves are homogenized in 0.5M ice-cold acetic acid containing 0.1 mg of pepsin per ml. The homogenate was stirred for 24 hours at 4° C., centrifuged, and supernatants saved. The native solubilized collagen was isolated by adding sodium chloride to 10% w/v. The salt precipitate was collected by centrifugation (10,000× g for 10 min.) and then taken up in 145 mM potassium phosphate buffer pH7.6, exhaustively dialyzed against 1 mM HCl, lyophilized and its dry weight recorded. Confirmation of collagen purity was made by SDS polyacrylamide gel electrophoresis. Pepsin digestion extracts only native collagen, needed for the formation of collagen fibers. The accumulations of collagen in the early stages of healing are responsible for gain in wound tensile strength. Collagen content from the implants taken from the group treated with cortisone acetate alone averaged 0.82 mg/sponge, as compared with 3.43 mg/sponge for the control group.
The group treated with Magainin II alone has a average wound breaking strength of 415 g.

In assay [2] the test system is full excision wound in rats. Description: 15 mm×15 mm full excision wound on the back of rats: wound contraction. To be noted: for average wound contraction: seven days. Type of assay: in vivo, rat.
Description: as §1, §2

The mark [3] stands for this setting: substance alone, daily intramuscular injections (Magainin II 0.3 mg; cortisone acetate 10 mg), implants harvested at seven days, control group 3.43.

On to Vitamin A, for which, in the assay with wound healing, the “restoring connective tissue deposition” value was “effective” and the restoring wound contraction entry is given as “ineffective”.

As to “GIGKFLHSAKKFGKAFVGEIMNS-NH2 [Magainin II]”, the “average collagen content of implants” value in assay [1] (0.3 mg Magainin II plus 10 mg cortisone acetate daily intramuscular at separate sites, seven days, cortisone acetate alone 0.82) turned out to be 3.20 mg/sponge; in assay [1] (setting [3]), 3.82 mg/sponge. For the same compound, in assay [1] (0.3 mg Magainin II plus 10 mg cortisone acetate daily intramuscular at separate sites, seven days, cortisone acetate alone 195), the “average wound breaking strength” value was found to be 320 g. Besides, the stimulating wound healing result in assay [2] (rats) is “effective”. Further, the “cortisone inhibition of wound healing (collagen deposition and wound contraction)” value in assay [2] (rats treated with cortisone acetate and Magainin II) was “antagonistic”. The average wound contraction in assay [2] (rats, 0.3 mg Magainin II plus 10 mg cortisone acetate daily intramuscular at separate sites, cortisone acetate alone 28) stood at 53%; in assay [2] (rats, substance alone, daily intramuscular injections (Magainin II 0.3 mg; cortisone acetate 10 mg), control group 67), 65%.

In the case of `C[C@]12CCC(=O)C=C1CC[C@@H]1[C@@H]2C(=O)C[C@@]2(C)[C@H]1CC[C@]2(O)C(=O)CO` [Cortisone], the “effect on wound healing” value in the assay on wound healing (known) is “inhibitor”.

In the case of `CC(=O)OCC(=O)[C@@]1(O)CC[C@H]2[C@@H]3CCC4=CC(=O)CC[C@]4(C)[C@H]3C(=O)C[C@@]21C` [cortisone acetate, reference compound], the “average collagen content of implants” value in assay [1] (setting [3]) came to 0.82 mg/sponge.

Take “growth hormone: other antagonist of cortisone inhibition, effective in restoring connective tissue deposition”: in the assay with wound healing, the “restoring connective tissue deposition” value is on record as “effective” and the restoring wound contraction entry is “ineffective”.

Source of the values: patent USRE35492E, “Wound treatment employing biologically active ion channel forming peptides and proteins” (Magainin Pharmaceuticals, Inc., priority 1994, dated 1997).
